The text below walks through data of patent US9937192B2, “Combination therapy to treat mycobacterium diseases” (priority 2012, dated 2018).

Molecules are shown by their SMILES. Converted amounts (≈) assume the structure as drawn. Where two headings read alike, the source gives them in different places.

Series [1] deals with M. tuberculosis. The experiment in a line: microbe, parasite or virus in culture. The class given is cell-based.
In series [2] the test system is M. kansasii. Nature of the series: MIC in bacterial broth culture (7H9 with ADC, visual or resazurin). The settings on record: Mycobacterium kansasii, Table 31, duplicate values. The class given is cell-based.
In series [3] the test system is M. tuberculosis Erdman. The experiment in a line: MBC assay, log killing reduction in CFU over a one month period of incubation (Table 35). The class given is cell-based. The settings on record: Compound 23A at 4×MIC.
Series [4] relates to nonreplicating M. tuberculosis. The experiment in a line: Low-Oxygen-Recovery Assay (LORA) MIC. The settings on record: Mycobacterium tuberculosis, read-out: LORA MIC. The class given is cell-based. An excerpt: MIC Determination in the Low-Oxygen-Recovery Assay (LORA) for Nonreplicating M. tuberculosis
Screening for new antimicrobial agents is routinely conducted only against actively replicating bacteria. However, it is now widely accepted that a physiological state of non-replicating persistence (NRP) is responsible for antimicrobial tolerance in many bacterial infections. In tuberculosis, the key to shortening the 6-month regimen lies in targeting this NRP subpopulation. […] Cho S H, Want S, Wan B, Hwang C H, Pauli G F, Franzblau S G; “Low-Oxygen-Recovery Assay for High-Throughput Screening of Compounds against Nonreplicating Mycobacterium tuberculosis” Antimicrob Agents Chemother. 2007 April; 51(4): 1380-1385 doi: 10.1128/AAC.00055-06.

Series [5] concerns intracellular M. tuberculosis in THP-1 cells. Nature of the series: microbe, parasite or virus in culture. The class given is cell-based. Conditions: Mycobacterium tuberculosis, H37RA; for MIC: read-out: MIC, Macrophage Cells.
For series [6], the system named is intracellular M. tuberculosis in J774 cells. Nature of the series: Efficacy against intracellular M. tuberculosis (luciferase) in J774 cells. The format is cell-based. The settings on record: Mycobacterium tuberculosis, J774, 120 h; read-out: Mtb CDC1551 in J774 Cells (IC50).
Series [7] relates to Non-Replicating (NRP) M. tuberculosis H37Ra. The experiment in a line: Non-replicating (NRP) M. tuberculosis H37Ra (luciferase) culture assay. The class given is cell-based. Conditions: Mycobacterium tuberculosis, 336 h, read on day 14.
The nature of series [8]: Oral Range Finding Toxicity and Toxicokinetic Study in Male Cynomolgus Monkeys. The format is in vivo, Cynomolgus monkeys (Macaca Fascicularis). The protocol:
An Oral Range Finding Toxicity and Toxicokinetic Study in Male Cynomolgus Monkeys
The first day of dosing was designated as Day 1 of the study. The actual volume administered to each animal was calculated and adjusted based on the most recent body weight of each animal.
Cage-side clinical signs (ill health, behavioral changes etc.) were recorded at least once daily during the study.
Body weights were recorded for all animals prior to group assignment and on Days 1 (prior to dosing), 3 and 7 as well as terminally prior to necropsy (fasted).
Electrocardiograms (bipolar limb leads I, II and III, and augmented unipolar leads aVR, aVL and aVF) were obtained for all monkeys once during the pre-treatment period and again on Day 7 (post-dosing).
The tracings were assessed for gross changes indicative of cardiac electrical dysfunction. The potential presence of abnormalities involving heart rate (lead II), sinus and atrioventricular rhythm or conductivity were determined. Heart rate, PR interval, QRS duration, QT and QTc intervals values were measured.
A series of 7 blood samples (approximately 0.5 mL each) were collected from each monkey on Days 1 and 7 at the following time points: predose, 30 minutes and 2, 3, 6, 12 and 24 hours post-dose. For this purpose, each monkey was bled by venipuncture and the samples were collected into tubes containing the anticoagulant, K2EDTA. Tubes were placed on wet ice until ready for processing.
Laboratory investigations (hematology, coagulation, clinical chemistry and urinalysis) were performed on all animals prior to start of treatment and prior to termination on Day 8.
A necropsy with tissue collection was conducted on all animals terminated during the study. The necropsy included examination of: • carcass and muscular/skeletal system; • all external surfaces and orifices; • cranial cavity and external surface of the brain; • neck with associated organs and tissues; and • thoracic, abdominal, and pelvic cavities with their associated organs and tissues. All abnormalities were described and recorded.
For all animals, all tissues indicated above were embedded in paraffin, sectioned and stained with hematoxylin and eosin and examined by light microscopy.

Series [9] can be described thus: Aqueous Solubility Study. The class given is physicochemical. The settings on record: water, aqueous buffer, thermodynamic from solid, crystalline solid form, pH >3.0, 96 hours at room temperature. As to the method: The aqueous solubilities of compound 23 and compound W were determined according to the following procedure.
Aqueous samples of each compound were prepared as follows. Compounds were weighed (20-30 mg compound) in 4 ml clear vials prior to adding water (0.5 mL) and stirring by magnetic stirrer. 1.0N HCl was added to the suspension to adjust the pH to the desired range. After stirring for 96 hours at room temperature, the suspension was filtered through a 0.22 micron filter (Millipore, Ultrafree centrifugal filters, Durapore PVDF 0.22 μm, Cat# UFC30GVNB). The filtrate was collected and the pH measured with a pH meter.
Standard solutions of each compound were prepared according to the following procedure. […]
Aliquots of each sample and each standard solution were analyzed by HPLC analysis (Agilent 1100, injection volume 10 μL, wavelength 271 nm, column XTerra® Phenyl 5 μm, 4.6×50 mm, Part No. 186001144, mobile phase: A: 0.1% TFA in water 0.1% TFA in AcN). […] Standard curves were obtained by plotting the average of the peak area from the HPLC versus the concentrations of the standard solutions (with appropriate corrections of the weights of the standards based on total water content of the solid as determined by elemental analysis). The concentration of each sample was calculated from the peak area of the aqueous sample from the HPLC results and the slope and intercept of the standard curves. […]

Series [10] in a line: Rat IV Study (pharmacokinetics). Conditions: male Sprague Dawley rats, plasma analyte = label.
Series [11] relates to M. tuberculosis H37Rv. The experiment in a line: Monotherapy against established TB in mice (dose-ranging activity study). The class given is in vivo. The settings on record: BALB/c mice, M. tuberculosis H37Rv, 150 mg/kg daily 5 days per week.
Series [12] has as its system M. tuberculosis H37Rv. The settings on record: cited from earlier work.
The mark [13] stands for this setting: Mycobacterium tuberculosis, H37RA, read-out: MIC, Broth.
Where [14] appears, read: doses up to 200 mg/kg/day for 7 days.
[15] abbreviates: Compound W dosed IV bolus 1 mg/kg in D5W.
The mark [16] stands for this setting: Compound W dosed IV bolus 5 mg/kg in D5W.

One may read the IC50 as the concentration that inhibits the measured activity by half. For `COc1c(N2C[C@@H]3CCCN[C@@H]3C2)c(F)cc2c(=O)c(C(=O)O)cn(C3CC3)c12` [Moxifloxacin, 1-cyclopropyl-7-[(1S,6S)-2,8-diazabicyclo [4.3.0]non-8-yl]-6-fluoro-8-methoxy-4-oxo-quinoline-3-carboxylic acid], the MIC in [1] (Mycobacterium tuberculosis, ERDMAN, Table 31, Mtb Erdman, duplicate values, read-out: MIC) was 0.03 µg/mL (≈ 0.0747 µM); in [1] (Mycobacterium tuberculosis, ERDMAN, Table 32, M. tuberculosis Erdman, […], duplicate values, read-out: MIC), 0.03 µg/mL (≈ 0.0747 µM); in [1] (Mycobacterium tuberculosis, ERDMAN, Table 33, M. tuberculosis strain Erdman, read-out: MIC), 0.03 µg/mL (≈ 0.0747 µM); in [1] (Mycobacterium tuberculosis, GN9, Table 31, Mtb GN9, duplicate values, read-out: MIC), 0.03 µg/mL (≈ 0.0747 µM); in [1] (Mycobacterium tuberculosis, GN9, Table 33, M. tuberculosis strain GN9, read-out: MIC), 0.03 µg/mL (≈ 0.0747 µM); in series [1] (setting [13]) it was 0.12 µg/mL (≈ 0.299 µM). Also, the MIC in [1] (Mycobacterium tuberculosis, H37RV, Table 31, Mtb H37Rv, duplicate values, read-out: MIC) was 0.03 µg/mL (≈ 0.0747 µM); in [1] (Mycobacterium tuberculosis, H37RV, Table 33, M. tuberculosis strain H37Rv, read-out: MIC), 0.06 µg/mL (≈ 0.149 µM); in [1] (Mycobacterium tuberculosis, Table 31, Mtb CDC1551, duplicate values, read-out: MIC), 0.015 µg/mL (≈ 0.0374 µM); in series [1] (Mycobacterium tuberculosis, Table 31, Mtb HN878 (Beijing-Type), duplicate values, read-out: MIC) it was 0.03 µg/mL (≈ 0.0747 µM); in [1] (Mycobacterium tuberculosis, Table 32, […], duplicate values, read-out: MIC), 8 µg/mL (≈ 19.9 µM); in [1] (Mycobacterium tuberculosis, Table 33, M. tuberculosis strain 210, read-out: MIC), 0.015 µg/mL (≈ 0.0374 µM). The MIC was found to be 0.5 µg/mL (≈ 1.25 µM) in series [1] (Mycobacterium tuberculosis, Table 33, M. tuberculosis strain AH13, read-out: MIC); 0.03 µg/mL (≈ 0.0747 µM) in [1] (Mycobacterium tuberculosis, Table 33, M. tuberculosis strain AH517, read-out: MIC); 0.008 µg/mL (≈ 0.0199 µM) in series [1] (Mycobacterium tuberculosis, Table 33, M. tuberculosis strain BW9, read-out: MIC); 0.03 µg/mL (≈ 0.0747 µM) in [1] (Mycobacterium tuberculosis, Table 33, M. tuberculosis strain C913, read-out: MIC); 0.03 µg/mL (≈ 0.0747 µM) in series [1] (Mycobacterium tuberculosis, Table 33, M. tuberculosis strain CDC1551, read-out: MIC); 0.25 µg/mL (≈ 0.623 µM) in series [1] (Mycobacterium tuberculosis, Table 33, M. tuberculosis strain H10460, read-out: MIC). In addition, the MIC worked out at 0.03 µg/mL (≈ 0.0747 µM) in series [1] (Mycobacterium tuberculosis, Table 33, M. tuberculosis strain H13571, read-out: MIC); 0.015 µg/mL (≈ 0.0374 µM) in [1] (Mycobacterium tuberculosis, Table 33, M. tuberculosis strain HH915336, read-out: MIC); 0.015 µg/mL (≈ 0.0374 µM) in series [1] (Mycobacterium tuberculosis, Table 33, M. tuberculosis strain LL, read-out: MIC); 0.015 µg/mL (≈ 0.0374 µM) in series [1] (Mycobacterium tuberculosis, Table 33, M. tuberculosis strain MC19062, read-out: MIC); 0.06 µg/mL (≈ 0.149 µM) in series [1] (Mycobacterium tuberculosis, Table 33, M. tuberculosis strain Rv ATCC, read-out: MIC); 0.03 µg/mL (≈ 0.0747 µM) in series [1] (Mycobacterium tuberculosis, Table 33, M. tuberculosis strain W10, read-out: MIC). Besides, the MIC in [1] (Mycobacterium tuberculosis, Table 33, M. tuberculosis strain W33, read-out: MIC) was determined as 0.5 µg/mL (≈ 1.25 µM); in [1] (Mycobacterium tuberculosis, Table 33, M. tuberculosis strain Wg565, read-out: MIC) it was 1 µg/mL (≈ 2.49 µM); in series [1] (Table 31, Mtb GN9, duplicate values) it was 0.015 µg/mL (≈ 0.0374 µM); in series [1] (Table 31, Mtb HN878 (Beijing-Type), duplicate values), 0.015 µg/mL (≈ 0.0374 µM); in series [1] (Table 32, M. tuberculosis Erdman, […], duplicate values), 0.015 µg/mL (≈ 0.0374 µM); in series [1] (Table 32, […], duplicate values), 4 µg/mL (≈ 9.96 µM). Also, the MIC is 0.03 µg/mL (≈ 0.0747 µM) in [2] (M. kansasii 303); 0.03 µg/mL (≈ 0.0747 µM) in series [2] (M. kansasii 316); 0.03 µg/mL (≈ 0.0747 µM) in series [2] (M. kansasii 379); greater than 40 µg/mL in [4]; 0.33 µg/mL (≈ 0.822 µM) in series [5]. Moreover, the Erdman (MIC) in [1] (Table 36, Mtb Erdman, unit inferred) is 0.03 µg/mL. Moreover, the “Log Reduction (cfu)” value was 0 Log in [3] (day 0 of incubation); 0.4 Log in series [3] (day 1 of incubation); 1.6 Log in series [3] (day 2 of incubation); 2.8 Log in series [3] (day 3 of incubation); 2.2 Log in series [3] (day 7 of incubation); 1.4 Log in series [3] (day 14 of incubation). In addition, the entries for the “Log Reduction (cfu)” value in [3] (day 21 of incubation) and in [3] (day 28 of incubation) were 0.0 Log and 0.2 Log, respectively. Further, the half-maximal inhibitory concentration (IC50) in series [5] (THP-1, 120 h, read-out: Mtb H37Ra in THP1 Cells (IC50)) was 0.33 µg/mL (≈ 0.822 µM); in [6], 0.21 µg/mL (≈ 0.523 µM); in series [7], 6 µg/mL (≈ 14.9 µM).
A word on the solubility: it is the dissolved amount per volume that the medium holds. A higher solubility goes with much dissolved substance. For the molecule `CCNC(=O)Nc1nc2cc(-c3cnc(C(C)(C)O)nc3)c(F)c([C@H]3CCCO3)c2[nH]1` [Compound 23, 1-ethyl-3-[6-fluoro-5-[2-(1-hydroxy-1-methyl-ethyl)pyrimidin-5-yl]-7-[(2R)-tetrahydrofuran-2-yl]-1H-benzimidazol-2-yl]urea], in [8] (setting [14]), the “clinical signs, body weights, electrocardiography, clinical pathology, organ weights” value is listed as “no clinical signs, or changes in body weights, electrocardiography parameters, clinical pathology parameters, or organ weights” and the “macroscopic or microscopic findings” value was “no macroscopic or microscopic findings”. The “no observed effect level (NOEL)” value in [8] (oral gavage once per day for 7 days) is given as 200 mg/kg/day. Also, the “exposures for different dosage levels” value in series [8] (toxicokinetics) is recorded as “dose related”. Also, in series [9], the solubility at 96 h was less than 1 µg/mL. In [10] (setting [15]), this molecule yielded an AUCextrap of 310 ng·h/mL, a Cl_obs of 54.9 mL/min/kg and a Vss_obs of 3.8 L/kg. For the same molecule, in series [10] (setting [16]), the AUCextrap is 3060 ng·h/mL, the Cl_obs is 27.3 mL/min/kg and the Vss_obs is on record as 4.08 L/kg.
Take `NC(=O)c1cnccn1` [Pyrazinamide, pyrazine-2-carboxamide]: in series [11] (4 weeks of treatment), the “Log cfu (lung)” value was 4.22. In addition, in series [11] (4 weeks, vs untreated control), the “Log Reduction” value was determined as 1.78. The MIC was greater than 12.3 µg/mL in series [1] (setting [13]); greater than 2.5 µg/mL in [5]; 250 µg/mL (≈ 2030 µM) in series [12] (M. tuberculosis H37Rv, normal pH); 50 µg/mL (≈ 406 µM) in [12] (pH 6.0).
